Patent US12215133B2 (BrightGene Bio-Medical Technology Co., Ltd., priority 2021, dated 2025)

How the values were obtained:
db/db mice [1] = assay: Hypoglycemic effect of BG121 and BG128 in db/db mice (Experimental Example 2); type: in vivo; conditions: for glycosylated hemoglobin content in serum vs solvent control / insulin content in serum vs solvent control: 25 days after administration; for glycosylated hemoglobin content in serum vs solvent control: FIG. 6; for insulin content in serum vs solvent control: FIG. 7; for body weight vs solvent control: day 4, 7, 10, 13, 16, 19, 22, FIG. 5; for non-fasting blood glucose vs solvent control: FIG. 3
Method: Germline: BKS mice (db/db mice); source: Gempharmatech Co., Ltd.; license key: SCXK (SU) 2018-0008; certificate number: 202100117; grade: SPF; number: 32; gender: male; age: 8 weeks (at the beginning of modeling); animal identification: ear tag.
Feeding conditions: temperature: 22±2° C.; humidity: 40%-70%; lighting: artificial lighting simulates day and night changes; drinking water: free to drink; feed: mouse breeding feed, wherein the mice were fasted overnight before determining fasting blood sugar, and the mice were free to eat for the rest of the time.
Formulation of BG128 (1 mg/ml) stock solution: a certain amount of BG128 was weighed, an appropriate volume of solvent (20 mM citric acid, pH 7.0) was added, and the mixture was sub-packaged at 100 μl/tube and frozen at −80° C. for later use;
BG128 (0.0151 mg/ml, for 30 nmol/kg administration): 90 μL of the 1 mg/mL stock solution was taken and added to a 10 mL EP together with 810 μL of the solvent, the mixture was homogeneously mixed in a vortex mixer, then 5044 μL of the solvent was added, and the mixture was homogeneously mixed in a vortex mixer and used up on the same day;
BG128 (0.0050 mg/ml, for 10 nmol/kg administration): 2 mL of BG128 ([…]) were taken, and 4 mL of the solvent was added, and the mixture was homogeneously mixed in a vortex mixer and used up on the same day.
32 SPF-grade male BKS-DB mice (db/db mice) were fed adaptively for 1 week. […] During the experiment, the experimenters need to observe the signs and health conditions of the experimental animals. Any abnormal manifestations of animals, such as pain, depression, decreased activity, etc., should be recorded in the original experimental records. If the abnormal manifestations of the experimental animals exceed the regulations in relevant documents for animal welfare, the animal can be euthanized after being notified.
Modeling method: db/db mice would develop spontaneous type 2 diabetes after being fed for 6 weeks, and the mice would develop symptoms, such as obesity, insulin resistance and hyperglycemia;
Mode of administration: it was intended to use subcutaneous injection by the clinical route of administration, the volume of administration is: 10 mL/kg, once every 3 days, for 22 consecutive days;
Fasting blood glucose determination: according to the above-mentioned animal grouping and administration dose, the fasting blood glucose of the mice was determined two days before the first administration and the body weight was determined. […] The fasting blood glucose levels were determined on day 7, 13, 19, and 25 after the first administration (changing the bedding and fasting before the fasting blood glucose determination), and the mice were fasted;
Non-fasting blood glucose determination: the blood glucose was determined at time points of 1, 3, 6, 24, 48, and 72 hours after the first administration;
Body weight determination: determined twice a week;
Food intake determination: determined twice a week.
After 25 days of administration, blood samples were collected by picking the eyeballs, and the serum insulin and glycosylated hemoglobin contents of the mice were determined respectively.
All reported determination data was calculated using GraphPad prism8.0 software for group mean and standard deviation.

db/db mice [2] = assay: Inhibitory effect of BG128 on hyperglycemia in db/db mice (Experimental Example 3); type: in vivo
Method: 55 6-8 week-old SPF-grade male db/db mice were purchased from Zhejiang Vital River Experimental Animal Technology Co., Ltd.
According to the dosage regimen in Table 7, a certain amount of Tirzepatide and BG128 were weighed and the vehicle (pH=7.0, 20 mM sodium citrate buffer) was added to formulated to the corresponding concentration. The formulation was performed once every 7 days, and the formulated mixture was sub-packaged and stored at 2° C.-8° C. in the dark.
Before the administration, according to the body weight and fasting blood glucose, the animals were grouped into: db/db-ND group, Tirzepatide—0.15 mg/kg group, BG128—0.05 mg/kg group, BG128—0.15 mg/kg group and BG128—0.5 mg/kg group, and each group have 11 animals; and see Table 7 for details.
The day of the first administration was recorded as d1, and the time was recorded by analogy; Tirzepatide and BG128 were administered once every three days, and the time points were d1, d4, d7, d10, d13, d16, d19, d22, d25 and d28, a total of 10 administrations; and see Table 7 for details.
Weighing: animals were weighed before administration once every three days until the end of the experiment.
The food intake of the animals was recorded starting at three days before the grouping for administration until the end of the experiment. The remaining amount was weighed before administration each time.
1) Non-fasting blood glucose determination: first administration 0 h (pre), 1 h, 2 h, 3 h, 6 h, 24 h, 48 h, 72 h;
2) Fasting blood glucose: the determination dates were respectively d-1 (before grouping), d7, d13, d19, d25 and d31. The animals were fasted for 6 hours, and the fasting blood glucose was determined before administration.
3 days after the last administration, the animals were weighed and fasted for 6 hours, and the fasting blood glucose of the animals was determined; after anesthesia, a portion of non-anticoagulated whole blood was collected through the orbital venous plexus, stood at room temperature for 30 minutes, and centrifuged at 5000 rpm for 5 minutes, the serum was separated and frozen at −80° C. for the determination of serum insulin content; a portion of anticoagulated whole blood was collected for the determination of HbA1c content. The serum insulin was determined by Elisa method.
The data was organized in Excel 2017 and Prism6.0, and the data was expressed as Mean±SEM (standard error). One-way ANOVA was used for analysis, and Tukey was selected as the analysis method for comparing significance of difference between groups; when the two groups were compared, T-test was used for two-tailed test between the two groups. […]

[3] = 10 nmol/kg s.c. once every 3 days
[4] = 30 nmol/kg s.c. once every 3 days
[5] = 0.5 mg/kg s.c. once every three days, anticoagulated whole blood, end of experiment, Mean ± SEM

`CNC(CCCCNC(=O)COCCOCCOCCNC(=O)COCCOCCOCCNC(=O)CCC(NC(=O)CC(=O)O)C(=O)O)C(N)=O` (stereo not shown) [BG128] was tested, and the “glycosylated hemoglobin content in serum vs solvent control” value (db/db mice [1]; [3]) was “no significant difference”, the “insulin content in serum vs solvent control” value (db/db mice [1]; [3]) was “significantly lower than that in the solvent control group” and the “body weight vs solvent control” value (db/db mice [1]; [3]) was “no significant difference”. For the same compound, the “non-fasting blood glucose vs solvent control” value (db/db mice [1]; 10 nmol/kg s.c., 1, 3, 6, 24, 48 and 72 h after first administration) was “reduce the blood glucose at each time point after the administration in a dose dependent manner”, the “glycosylated hemoglobin content in serum vs solvent control” value (db/db mice [1]; [4]) was “significantly lower than that in the BG121 (30 nmol/kg) administration group and the solvent control group” and the “insulin content in serum vs solvent control” value (db/db mice [1]; [4]) was “significantly lower than that in the solvent control group”. The “body weight vs solvent control” value (db/db mice [1]; [4]) was “significantly lower than that in the solvent control group and the BG121 (30 nmol/kg) administration group”, the “fasting blood glucose vs solvent control” value (db/db mice [1]; 30 nmol/kg s.c. once every 3 days, day 19 and 25 after first administration, FIG. 4) was “significantly reduce the fasting blood glucose level” and the “non-fasting blood glucose vs solvent control” value (db/db mice [1]; 30 nmol/kg s.c., 1, 3, 6, 24, 48 and 72 h after first administration) was “reduce the blood glucose at each time point after the administration in a dose dependent manner”. The HbA1C (db/db mice [2]; 0.15 mg/kg s.c. once every three days, anticoagulated whole blood, end of experiment, Mean ± SEM) was 5.31 ± 0.19, the HbA1C (db/db mice [2]; [5]) was 4.68 ± 0.20 and the HbA1C% (db/db mice [2]; [5]) was 3.33 ± 0.16^abde %. The “blood sugar suppression effect (non-fasting) compared with Tirzepatide” value (db/db mice [2]; within 72 h of the first administration, equal dose 0.15 mg/kg, FIG. 11) was “dose-dependent and better than that of positive drug Tirzepatide”.
